Experimental data: patent US20240043474A1, “ANTI-INFLAMMATORY PEPTIDE FOR PREVENTING OR TREATING ATOPIC DERMATITIS” (AJOU UNIVERSITY INDUSTRY-ACADEMIC COOPERATION FOUNDATION, priority 2020, published 2024)
“Also recorded” adds a separate entry of the source. Square brackets hold non-standard residues; d marks the D form. Primed or numbered codes have the meaning given here. Ends that are not written are not given here. Peptide text beside a SMILES is read from it. * marks the point of attachment. PEG2′ = N-terminal cap of 2 polyethylene glycol units (PEG2); PEG4′ = N-terminal cap of 4 polyethylene glycol units (PEG4); 5FAM = O=C1OC2(c3ccc(O)cc3Oc3cc(O)ccc32)c2ccc(C(=O)*)cc21; Butanoyl(4-maleimido) = O=C1C=CC(=O)N1CCCC(=O)*; Stearoyl = CCCCCCCCCCCCCCCCCC(=O)*; Palmitoyl = CCCCCCCCCCCCCCCC(=O)*; Myristoyl = CCCCCCCCCCCCCC(=O)*; Hexanoyl = CCCCCC(=O)*

Experiments:
[1] = Skin tissue penetrability, confocal microscopy of skin after topical fluorescent peptide; type: in vivo, mouse; conditions: 1 μg applied to skin of ICR mice, with or without needle scratch, skin collected 2 hours later; FIG. 5
Description: To determine the skin tissue penetration of the A900 peptide, peptide A900 peptide (A900-FAM) with fluorescent substance FAM (Carboxyfluorescein) attached to the N-terminus of A900 peptide was applied to the skin of ICR 4-week-old mice.

[2] = test system: peritoneal macrophages; test: Intracellular expression and frequency of peptide in cultured peritoneal macrophages, confocal microscopy and FACS; type: cell-based, mouse; conditions: 1 μg/mL, FIG. 8
Description: Peritoneal macrophages were isolated from the same mouse used in FIG. 7 to culture the cell suspension. Anti-CD3 (1 μg/ml) antibodies were plated on a petri dish at room temperature for 3 hours and cells were inoculated (5×10^5 cells/well). After 1 hour, anti-CD28 antibodies (1 μg/ml), IL-23 (20 ng/ml), IL-6 (20 ng/ml), and TGF-β (5 ng/ml) were added.

[3] = test system: lymph node cells; test: Intracellular expression and frequency of peptide in cultured lymph node cells, confocal microscopy and FACS; type: cell-based, mouse; conditions: 1 μg/mL, FIG. 7
[4] = test system: peritoneal macrophages; test: Fluorescence-expressing peritoneal macrophages after intraperitoneal fluorescently labeled peptide, FACS; type: in vivo, mouse
[5] = test system: IL-4, IL-31, IL-17; test: Cytokine expression in spleen by real-time PCR after treating atopic skin lesions with external preparation; type: in vivo, mouse; conditions: external preparation on skin lesions, FIG. 9
[6] = test system: cells secreting atopy associated cytokines; test: In vivo FACS of intracellular cytokines in PBLs after external preparation for 5 days in atopic mice; design: species or system mouse; conditions: external preparation 1 μg/ml for 5 days, compared to ADC mice given PBS, FIG. 13
Description: (§1) After removing hair from 6-week-old Balb/c male mice, application was performed with 1% DNCB 1 time/day for 2 days and 0.5% DNCB 1 time/day for 3 days for a total of 5 days, to induce atopic symptoms (N=5-8 mice for each group). After administering the external preparation to mouse skin for 5 days in mice having atopic symptoms, peripheral blood leukocytes (PBLs) were isolated and the frequency of each cytokine expressing cell was analyzed and compared after intracellular staining with antibodies for FACS. The control group was given with an anti-inflammatory moisturizing cream external preparation (5 times) and administered with an anti-mouse IL-4 receptor antibody (100 ug/mouse) intraperitoneal injection (1 time). A900, A900M, A900MAL, and A900PEG4 were used for peptides, and the concentration was set to 1 μg/ml. Cytokines were subjected to intracellular staining to measure the frequency of stained cell population.

[7] = test system: IL-4R alpha, CCR3 and CTLA-4 positive cells; test: FACS of splenocytes from atopic dermatitis mice after external preparation for five days; type: in vivo, mouse; conditions: FIG. 2
Description: In order to identify whether the peptide that has the effect of alleviating atopic dermatitis inflammation has an immunoregulatory function, splenocytes and peripheral blood leukocytes (PBLs) were separately isolated after administrating the external preparation into the mouse skin for five days, surface staining was performed with antibodies for FACS, and then the frequency of cells expressing interleukin 4 receptor (IL-4R) alpha, C—C chemokine receptor type 3 (CCR3), and cytotoxic T-lymphocyte-associated protein 4 (CTLA-4) was analyzed via flow cytometry. Dupixent was administered in a form of a peritoneal injection and tested as a control group.

[8] = test system: IL-4, IL-13, IL-21; test: Real-time PCR of cytokines in splenocytes and lymph node cells from atopic mice cultured with peptides; type: cell-based, mouse; conditions: 24 hours, compared to untreated control (ADC), FIGS. 11 and 12
[9] = test system: IL-4; test: IL-4 expression in splenocytes of treated atopic dermatitis mice by real-time PCR; type: in vivo, mouse; conditions: FIG. 4
[10] = test system: CD4 T cells secreting atopy associated cytokines; test: Ex vivo FACS of PBMCs from atopic mice cultured with peptides; type: cell-based, mouse; conditions: 3 μg/ml, 24 hours, compared to untreated control group (ADC), FIG. 10
Description: After removing hair from 6-week-old Balb/c male mice, application was performed with 1% DNCB 1 time/day for 2 days and 0.5% DNCB 1 time/day for 3 days for a total of 5 days to induce atopic symptoms. PBMCs were isolated from atopic mice, seeded in 24 well plates, treated with peptides, cultured for 24 hours, and then analyzed by FACS. PBMCs isolated from normal mice and atopy-induced mice were used as control groups, and peptides were treated to PBMC cultures isolated from atopic mice. Dupixent was used for the peptide control group (Dupixent 5 μg/ml). A900, A900P, A900H, A900S, A900M, A900MAL, A900PEG2, and A900PEG4 were used as the peptides, and the concentration was set to 3 μg/ml. Surface was stained with anti-CD4 antibodies, cytokines were subjected to intracellular staining, and the frequency of double stained population was measured.

[11] = test system: CD11b+Ly6G+, CD83+ and Foxp3+ positive cells; test: FACS of peripheral blood leukocytes (PBLs) from atopic dermatitis mice after peptide administration; type: in vivo, mouse; conditions: FIG. 3
[12] = test system: atopic dermatitis induced with dinitrochlorobenzene (DNCB); test: DNCB-induced atopic dermatitis mouse model, peptide applied as external preparation; type: in vivo; conditions: FIG. 1
Description: Experimental mice were bred in a 12-hour light/dark cycle, free of pathogens at a constant temperature of 23° C. and 55% humidity. After an adaptation period of several days, DNCB-induced atopic dermatitis was induced in mice by the following method.
First, the hair in the dorsal skin area was carefully shaved using a hair removal cream, and then 100 μL of 1% dinitrochlorobenzene (DNCB) dissolved in acetone was locally treated to exposed skin once a day for 3 days to sensitize the skin and induce atopic dermatitis.
A positive control group obtained by treating mice having atopic dermatitis with anti-inflammatory moisturizing cream (Control Cream) and Dupixent injection which is a therapeutic agent for atopic dermatitis was compared with a peptide (A900 peptide) treated group.

[13] = test system: IL-13, IL-4, TNF alpha, IL-17; test: Cytokines in mice having atopic dermatitis after peptide A900 treatment (summary statement); type: in vivo, mouse
[14] = test system: CD4 cells secreting IL-13 and IL-31; test: In vivo FACS of cytokine-expressing CD4 cells in PBLs after external preparation in atopic mice; design: species or system mouse; conditions: external preparation 1 μg/ml for 5 days, FIG. 14
Description: as §1
Peripheral blood leukocytes (PBLs) isolated from the same mice as in FIG. 13 were isolated and subjected to CD4 surface staining and intracellular staining with antibodies for FACS to analyze and compare the frequency of each cytokine-expressing CD4 cell.

[15] = external preparation for five days
[16] = PBLs of mice having atopic dermatitis

Molecule | expression of IL-4 [5] | expression of IL-17 [5] | expression of IL-31 [5] | IL-4 expression [8] | IL-13 expression [8] | IL-21 expression [8] | frequency of CD4 T cells secreting atopy associated cytokines [10] | also measured
CC[C@H](C)[C@H](NC(=O)[C@H](CCC(=O)O)NC(=O)CNC(=O)[C@H](CS)NC(=O)[C@H](CCCNC(=N)N)NC(=O)[C@H](CC(C)C)NC(=O)[C@@H](NC(=O)[C@@H](NC(=O)[C@@H](NC(=O)[C@H](CS)NC(=O)CNC(=O)c1ccc2c(c1)C(=O)OC21c2ccc(O)cc2Oc2cc(O)ccc21)C(C)C)[C@@H](C)O)C(C)C)C(=O)N[C@H](C(=O)O)C(C)C [A900-FAM] (5FAM-GCVTVLRCGEIV-OH) |  |  |  |  |  |  |  | skin tissue penetration (fluorescence in skin tissue) [1]: fluorescence was detected in both the epidermis and dermis; cell frequency expressing peptide ([2]; 1-hour culture group): 10%; cell frequency expressing peptide ([2]; 24-hour culture group): 15%; cell frequency expressing peptide ([3]; 1-hour treated group): 20%; cell frequency expressing peptide ([3]; 24-hour treated group): 40%; fluorescence-expressing cells ([4]; 3 μg into abdominal cavity, after 3 hours, FIG. 6): barely detected; peritoneal macrophages expressing fluorescence ([4]; 3 μg into abdominal cavity, at 30 minutes, FIG. 6): 50%; peritoneal macrophages expressing fluorescence ([4]; 3 μg into abdominal cavity, at 1 hour, FIG. 6): 23%; time the peptide is maintained in the cell ([4]; 3 μg intraperitoneally, cells in the abdominal cavity): more than 1 hour
GCESEILCGEIV [A907] | inhibited | inhibited | inhibited |  |  |  |  | 
GCETELRCGEIV [A903] | inhibited | inhibited | inhibited |  |  |  |  | 
GCETVLRCGEIV [A901] | inhibited | inhibited | inhibited |  |  |  |  | 
GCLRCGEIV [A914] | inhibited | inhibited | inhibited |  |  |  |  | 
GCVTELRCGEIV [A902] | inhibited | inhibited | inhibited |  |  |  |  | 
GCVTVCGEIV [A911] | inhibited | inhibited | inhibited |  |  |  |  | 
GCVTVLRCGEIV [A900] | inhibited | inhibited | inhibited | inhibited | inhibited | inhibited | inhibited | frequency of cells secreting atopy associated cytokines [6]: inhibited; degree of inhibition of IL-4R alpha, CCR3 and CTLA-4 positive cells compared with control administered group ([7]; control Dupixent peritoneal injection): more effective than that of the control administered group; frequency of CCR3 positive cells [7, 15]: tended to be inhibitive; also recorded: decreased; frequency of CTLA-4 positive cells [7, 15]: tended to be inhibitive; also recorded: decreased; frequency of IL-4R alpha positive cells [7, 15]: tended to be inhibitive; also recorded: decreased; IL-4 expression [9]: inhibited; frequency of CD11b+Ly6G+ positive cells [11, 16]: inhibited; frequency of CD83+ positive cells [11, 16]: inhibited; frequency of Foxp3+ positive cells [11, 16]: increased; degree of inhibition of CD11b+Ly6G+ and CD83+ positive cells compared with control administered group ([11]; PBLs): more effective than in the control administered group; atopic dermatitis symptoms ([12]; external preparation applied to mice with DNCB-induced atopic dermatitis): alleviated; speed of appearance of the effect compared with control group ([12]; versus Control Cream / Dupixent injection positive control): faster than the control group; cytokines such as IL-13, IL-4, TNF alpha, and IL-17 [13]: reduced
Hexanoyl-GCVTVLRCGEIV (cysteine pairing not given here) [A900H] |  |  |  | inhibited | inhibited | inhibited |  | 
Maleimidobutyrol-GCVTVLRCGEIV ({Butanoyl(4-maleimido)}-GCVTVLRCGEIV; cysteine pairing not given here) [A900MAL] |  |  |  | inhibited | inhibited | inhibited | inhibited | frequency of cells secreting atopy associated cytokines [6]: inhibited; frequency of CD4 cells secreting IL-13 [14]: inhibited; frequency of CD4 cells secreting IL-31 [14]: inhibited
Myristoyl-GCVTVLRCGEIV (cysteine pairing not given here) [A900M] |  |  |  | inhibited | inhibited | inhibited | inhibited | frequency of cells secreting atopy associated cytokines [6]: inhibited
PEG2-GCVTVLRCGEIV ([PEG2′]GCVTVLRCGEIV; cysteine pairing not given here) [A900PEG2] |  |  |  | inhibited | inhibited | inhibited |  | 
PEG4-GCVTVLRCGEIV ([PEG4′]GCVTVLRCGEIV; cysteine pairing not given here) [A900PEG4] |  |  |  | inhibited | inhibited | inhibited | inhibited | frequency of cells secreting atopy associated cytokines [6]: inhibited
Palmitoyl-GCVTVLRCGEIV (cysteine pairing not given here) [A900P] |  |  |  | inhibited | inhibited | inhibited | inhibited | 
Stearoyl-GCVTVLRCGEIV (cysteine pairing not given here) [A900S] |  |  |  |  |  |  | inhibited | 
